Measurements: US20120202690A1, “HERBICIDAL COMPOUNDS” (SYNGENTA LIMITED, priority 2009, published 2012)

Legend:
Format in all cases: in vivo
[1] = tested on: Amaranthus retroflexus (AMARE); assay: Post-emergence biological efficacy, glasshouse, 500 or 1000 g/ha, evaluated after 13 days (100=total damage to plant; 0=no damage to plant); details: Amaranthus retroflexus, 312 h, rate 1,000 g/ha, read-out: Percentage damage caused to weed species, post-emergence, AMARE
Outline: (§1)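 Damage is scored on pot-grown plants, sown in standard soil and sprayed after emergence, that were held post-treatment in a glasshouse (24/16° C. day/night, 14 hours light, 65% humidity).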

[2] = tested on: Alopecurus myosuroides (ALOMY); assay: as above; details: Alopecurus myosuroides, 312 h, rate 1,000 g/ha, read-out: Percentage damage caused to weed species, post-emergence, ALOMY
Outline: as §1

[3] = tested on: Ipomoea hederaceae (IPOHE); assay: as above; details: Ipomoea, 312 h, rate 1,000 g/ha, read-out: Percentage damage caused to weed species, post-emergence, IPOHE
Outline: as §1

[4] = tested on: Setaria faberi (SETFA); assay: as above; details: Setaria faberi, 312 h, rate 1,000 g/ha, read-out: Percentage damage caused to weed species, post-emergence, SETFA
Outline: as §1

[5] = tested on: Solanum nigrum (SOLNI); assay: as above; details: Solanum nigrum, 312 h, rate 1,000 g/ha, read-out: Percentage damage caused to weed species, post-emergence, SOLNI
Outline: as §1

[6] = tested on: Echinochloa crusgaffi (ECHCG); assay: as above; details: Echinochloa, 312 h, rate 1,000 g/ha, read-out: Percentage damage caused to weed species, post-emergence, ECHCG
Outline: as §1

[7] = tested on: Amaranthus retroflexus (AMARE); assay: Pre-emergence biological efficacy, glasshouse, 1000 g/ha, evaluated after 13 days (100=total damage to plant; 0=no damage to plant); details: Amaranthus retroflexus, 312 h, rate 1,000 g/ha, read-out: Percentage damage caused to weed species, pre-emergence, AMARE
Outline: (§2)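 Standard soil in pots received the seeds. Growth took place in a glasshouse held at 24/16° C. day/night, 65% humidity and 14 h of light.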

[8] = tested on: Alopecurus myosuroides (ALOMY); assay: as above; details: Alopecurus myosuroides, 312 h, rate 1,000 g/ha, read-out: Percentage damage caused to weed species, pre-emergence, ALOMY
Outline: as §2

[9] = tested on: Ipomoea hederaceae (IPOHE); assay: as above; details: Ipomoea, 312 h, rate 1,000 g/ha, read-out: Percentage damage caused to weed species, pre-emergence, IPOHE
Outline: as §2

[10] = tested on: Echinochloa crus-galli (ECHCG); assay: as above; details: Echinochloa crus-galli, 312 h, rate 1,000 g/ha, read-out: Percentage damage caused to weed species, pre-emergence, ECHCG
Outline: as §2

[11] = tested on: Setaria faberi (SETFA); assay: as above; details: Setaria faberi, 312 h, rate 1,000 g/ha, read-out: Percentage damage caused to weed species, pre-emergence, SETFA
Outline: as §2

[12] = tested on: Solanum nigrum (SOLNI); assay: as above; details: Solanum nigrum, 312 h, rate 1,000 g/ha, read-out: Percentage damage caused to weed species, pre-emergence, SOLNI
Outline: as §2

Compound	pest or weed control at 1000 g/ha [1] [%]	pest or weed control at 1000 g/ha [2] [%]	pest or weed control at 1000 g/ha [3] [%]	pest or weed control at 1000 g/ha [4] [%]	pest or weed control at 1000 g/ha [5] [%]	pest or weed control at 1000 g/ha [6] [%]	pest or weed control at 1000 g/ha [7] [%]	pest or weed control at 1000 g/ha [8] [%]	pest or weed control at 1000 g/ha [9] [%]	pest or weed control at 1000 g/ha [10] [%]	pest or weed control at 1000 g/ha [11] [%]	pest or weed control at 1000 g/ha [12] [%]
COC(=O)c1nc(-c2ccc(Cl)c(OC)c2F)nc2c1c(C)cn2S(C)(=O)=O [Compound 18-64, 2-(4-chloro-2-fluoro-3-methoxyphenyl)-4-methoxycarbonyl-5-methyl-7-methylsulphonyl-7H-pyrrolo[2,3-d]pyrimidine]	20	10	40	30	40	10	0	0	0	0	0	0
COc1c(Cl)ccc(-c2nc(C(=O)O)c3c(C)cn(Cc4ccc(F)cc4)c3n2)c1F [Compound 9-63]	20	0	40	0	60	0	20	0	0	0	0	10
COC(=O)c1nc(-c2ccc(Cl)c(OC)c2F)nc2c1c(C)cn2C(=O)C(C)(C)C [Compound 16-64, 7-t-Butylcarbonyl-2-(4-chloro-2-fluoro-3-methoxyphenyl)-4-methoxycarbonyl-5-methyl-7H-pyrrolo[2,3-d]pyrimidine]	10	0	70	0	60	0	0	0	0	0	0	0
COC(=O)c1nc(-c2ccc(Cl)c(F)c2)nc2[nH]cc(C)c12 [Compound 1-20, 2-(4-Chloro-3-fluorophenyl)-4-methoxycarbonyl-5-methyl-7H-pyrrolo[2,3-d]pyrimidine]	70	0	60	0	70	0	50	0	0	0	0	0
CCOCCOC(=O)c1nc(-c2ccc(Cl)c(OC)c2F)cc2[nH]cc(C)c12 [Compound 22-82, 6-(4-Chloro-2-fluoro-3-methoxyphenyl)-4-[(2-ethoxy)-ethoxycarbonyl]-3-methyl-1H-pyrrolo[3,2-c]pyridine]	80	20	40	40	90	20	70	10	90	20	0	90
CCCCOCCOC(=O)c1nc(-c2ccc(Cl)c(OC)c2F)cc2[nH]cc(C)c12 [Compound 22-83]	90	20	60	40	90	20	0	20	80	20	10	80
COC(=O)c1nc(-c2ccc(Cl)c(OC)c2F)nc2[nH]c(-c3ccccc3)c(C)c12 [Compound 1-108, 2-(4-Chloro-2-fluoro-3-methoxyphenyl)-4-methoxycarbonyl-5-methyl-6-phenyl-7H-pyrrolo[2,3-d]pyrimidine]	0	0	50	0	30	0	0	0	0	0	0	0
COc1c(Cl)ccc(-c2nc(C(=O)O)c3c(n2)N(C(C)C)CCN3C(C)C)c1F [Compound 93-165, 4-Carboxy-2-(4-chloro-2-fluoro-3-methoxyphenyl)-5,8-diisopropyl-5,6,7,8-tetrahydropteridine]	20	10	20	30	30	20	0	0	10	0	0	0
COc1c(Cl)ccc(-c2nc(C(=O)O)c3cc(C)n(CC4CC4)c3n2)c1F [Compound 5-65, 4-Carboxy-2-(4-chloro-2-fluoro-3-methoxyphenyl)-7-cyclopropymethyl-6-methyl-7H-pyrrolo[2,3-d]pyrimidine]	10	0	10	20	20	0	0	0	0	0	0	0
COC(=O)c1nc(-c2ccc(Cl)c(F)c2)nc2c1ccn2Cc1ccccc1[N+](=O)[O-] [Compound 8-18, 2-(4-Chloro-3-fluorophenyl)-4-methoxycarbonyl-7-(2-nitrophenyl-methyl)-7H-pyrrolo[2,3-d]pyrimidine]	0	0	20	0	30	0	0	0	0	0	0	0
COC(=O)c1nc(C2CC2)nc2c1cc(C)n2Cc1ccccc1[N+](=O)[O-] [Compound 8-6, 2-Cyclopropyl-4-methoxycarbonyl-6-methyl-7-(2-nitrophenyl-methyl)-7H-pyrrolo[2,3-d]pyrimidine]	20	0	50	0	20	0	0	0	0	0	0	0
COC(=O)c1nc(-c2ccc(Cl)c(OC)c2F)nc2nc3ccccc3nc12 [Compound 125-76, 2-(4-chloro-2-fluoro-3-methoxyphenyl)-4-methoxycarbonyl-benzo[g]pteridine]	100	10	80	80	90	70	80	10	60	20	20	70
